Experiment [1] deals with T1, mTFF1 (human TFF1, monomeric) (Homo sapiens, UniProt P04155).
T1 construct: PelB signal peptide (N, cleaved yes); His6 (C, cleaved yes); made in house; host or cells: E. coli T7 Express, periplasmic extraction
T1 sequence (P04155 with tags, fused parts or gaps): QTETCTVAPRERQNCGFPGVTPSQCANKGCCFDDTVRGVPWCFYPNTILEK
The experiment in a line: Isothermal titration calorimetry of glycans against mTFF1. The experiment is classed as binding. The conditions noted are these: 25 °C. As for the experimental part: (§1) All TFF and ligand stock solutions were prepared in the same buffer (50 mM HEPES, 50 mM NaCl, pH 7.4) and filtered (0.22 µm) just prior to titration. All control and non-binding ligand experiments were performed as 12 × 3.18 µl injections. For experiments with GlcNAc-α-1,4-Gal (Carbosynth), 25 × 1.58 µl injections were used. All runs were performed at 25 °C in a MicroCal iTC200 (Malvern).
(§2) Supplementary Table 2: Parameters used for ITC and thermodynamic terms determined for
(§3) GlcNAc-α-1,4-Gal binding to the TFFs. Data are presented as mean values ±SD for three
(§4) Protein GlcNAc-α- T n Kd ΔH ΔS -TΔS ΔG
(§5) (30 µM) 1,4-Gal (µM) (℃) (µM) (kcal · mol-1) (cal · mol-1 · K-1) (kcal · mol-1) (kcal · mol-1)
In general terms: In ITC the heat of successive injections is recorded.

The target of another experiment is T2, TFF2 (human TFF2) (Homo sapiens, UniProt Q03403, N38Q).
T2 construct: with an N-terminal gp67 signal peptide and a C-terminal His10-tag; gp67 signal peptide (N, cleaved yes); made in house; host or cells: Sf21 insect cells (baculovirus), secreted
T2 sequence (Q03403 24-129 N38Q): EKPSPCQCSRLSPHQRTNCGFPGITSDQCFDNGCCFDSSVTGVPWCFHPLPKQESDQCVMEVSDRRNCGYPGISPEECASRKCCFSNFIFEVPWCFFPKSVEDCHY
Nature of the experiment: Isothermal titration calorimetry of glycans against TFF2. The experiment is classed as binding. The method, then:
as §1, §2, §3, §4, §5

In experiment [2] the target is T3, mTFF3 (human TFF3, monomeric) (Homo sapiens, UniProt Q07654, C78S).
T3 construct: with an N-terminal PelB signal peptide, no interchain Cys, and a C-terminal His6-tag; PelB signal peptide (N, cleaved yes); His6 (C, cleaved yes); made in house; host or cells: E. coli T7 Express, periplasmic extraction
T3 sequence (Q07654 22-80 C78S): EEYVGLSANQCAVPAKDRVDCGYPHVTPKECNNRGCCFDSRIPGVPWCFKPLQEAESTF
Nature of the experiment: Isothermal titration calorimetry of glycans against mTFF3. The experiment is classed as binding. As for the experimental part: as §1, §2, §3, §4, §5

A further experiment has as its target T4, mTFF1 (Homo sapiens, UniProt P04155).
T4 construct: PelB signal peptide (N, cleaved yes); His6 (C, cleaved yes); made in house; host or cells: E. coli T7 Express, periplasmic extraction
T4 sequence (P04155 29-72 limits assumed): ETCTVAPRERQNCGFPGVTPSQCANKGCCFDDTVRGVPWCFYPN
Nature of the experiment: Tryptophan fluorescence quenching assay, mTFF1. The experiment is classed as binding. The method, then: (§6) Tryptophan fluorescence quenching assays were performed at 25 °C on an EnVision 2105 Multimode Plate Reader (PerkinElmer) with excitation at 280 nm and emission measured at 340 nm. The assay was performed in a 384-well plate (Corning, low volume black round bottom polystyrene non-binding surface) using 15 µl per well. Each sample contained mTFF1 or mTFF3 (5 µM) and GlcNAc-α-1,4-Gal (1 µM–4.1 mM) in 50 mM BTP/citric acid, 25 mM NaCl, at either pH 2.6, 5.0, or 7.4. For each ligand dilution series, Kd was calculated by fitting the data to a one-site binding curve using Prism 8 (GraphPad) and the mean calculated from three independent experiments.

Another experiment addresses T5, mTFF3 (Homo sapiens, UniProt Q07654, C78S).
T5 construct: with an N-terminal PelB signal peptide, no interchain Cys, and a C-terminal His6-tag; PelB signal peptide (N, cleaved yes); His6 (C, cleaved yes); made in house; host or cells: E. coli T7 Express, periplasmic extraction
T5 sequence (Q07654 22-80 C78S): T3 sequence (Q07654 22-80 C78S)
Nature of the experiment: Tryptophan fluorescence quenching assay, mTFF3. The experiment is classed as binding. The method, then:
as §6

A further experiment deals with all TFFs. Nature of the experiment: Dissociation constant of TFF-disaccharide complexes, summary of orthogonal techniques. The experiment is classed as binding, human. The conditions noted are these: physiological pH, approximate. The method, then: as §1, §6
In another experiment the target is T6, dTFF1bio-N14A (Homo sapiens, UniProt P04155, N40A).
T6 construct: […]; made in house; host or cells: E. coli SHuffle T7; dimerised with K3Fe(CN)6
T6 sequence (P04155 25-84 N40A): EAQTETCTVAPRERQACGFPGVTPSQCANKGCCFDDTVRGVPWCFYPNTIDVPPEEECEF
Nature of the experiment: ITC of GlcNAc-α-1,4-Gal against dTFF1bio-N14A. The experiment is classed as binding. Conditions: mutant dTFF1bio-N14A. The method, then:
as §1
(§7) Supplementary Figure 1: ITC controls and negative results. Top row: Ligand into buffer and
(§8) buffer into protein controls for Figure 1D. Bottom row: ITC data for TFF mutants.
(§9) (1 picture or pasted object on this page, not shown here)

The next experiment relates to the other TFF mutants. The experiment in a line: ITC of GlcNAc-α-1,4-Gal against the other TFF mutants. The experiment is classed as binding, human. As for the experimental part: as §1, §7, §8, §9
The target of experiment [3] is bacterial carbohydrate-binding module family 32 protein (CBM32). The conditions noted are these: CBM32 binding GlcNAc-α-1,4-Gal; cited from earlier work.
A further experiment relates to pMucin. Nature of the experiment: Mucin agglutination assay. The experiment is classed as biochemical, porcine. Conditions: pMucin 0.02% w/v, 405 nm, 25 °C. As for the experimental part:
Mucin agglutination assays were performed at 25 °C on an EnVision 2105 Multimode Plate Reader (PerkinElmer) to monitor transmission at 405 nm over time. The assay was performed in a 96-well plate (Corning, polystyrene flat bottom clear) with 50 µl per well. pMucin concentration was kept consistent at 0.02% w/v and TFF concentration varied (0, 1, 2, 4, 8, 16 or 32 µM). The resulting curves were normalised to percent decrease in signal, averaged over three replicates and plotted using Prism 8 (GraphPad).

Where no end group is shown, it is not given here.

A word on the Kd: it is the equilibrium constant for the complex coming apart. Take `CC(=O)N[C@H]1[C@@H](O[C@@H]2[C@H](O)[C@@H](O)C(O)O[C@@H]2CO)O[C@H](CO)[C@@H](O)[C@@H]1O` (stereo partly drawn) [GlcNAc-α-1,4-Gal]: the n in experiment [1] (ITC stoichiometry) was 1.0 ± 0.2; at TFF2 (human TFF2) (ITC stoichiometry, 25 °C) it was 0.7 ± 0.3; in experiment [2] (ITC stoichiometry, 25 °C) it was 1.0 ± 0.1. For the same molecule, the “-TΔS” value came out at 4 ± 2 kcal/mol in experiment [1] (ITC); 20 ± 10 kcal/mol on TFF2 (human TFF2) (ITC, 25 °C); 5.0 ± 0.5 kcal/mol in [2] (ITC, 25 °C). In addition, the ΔG was -5.97 ± 0.03 kcal/mol in experiment [1] (ITC); -6.2 ± 0.2 kcal/mol at TFF2 (human TFF2) (ITC, 25 °C); -5.83 ± 0.05 kcal/mol in experiment [2] (ITC, 25 °C). In addition, the ΔH was -10 ± 2 kcal/mol in experiment [1] (ITC); -20 ± 10 kcal/mol on TFF2 (human TFF2) (ITC, 25 °C); -10.8 ± 0.5 kcal/mol in experiment [2] (ITC, 25 °C). Also, the ΔS was -14 ± 5 cal · mol-1 · K-1 in experiment [1] (ITC); -60 ± 40 cal · mol-1 · K-1 at TFF2 (human TFF2) (ITC, 25 °C); -17 ± 2 cal · mol-1 · K-1 in experiment [2] (ITC, 25 °C). Further, the Kd in [1] (ITC, 50 mM HEPES, 50 mM NaCl, pH 7.4, protein 30 µM) came to 49 ± 4 µM; on TFF2 (human TFF2), 44 ± 8 µM; in experiment [2], 65 ± 5 µM; at mTFF1 (pH 2.6, 25 °C), 67 ± 1 µM; at mTFF1 (pH 7.4, 25 °C), 37 ± 2 µM; on mTFF3 (pH 2.6, 25 °C), 350 ± 60 µM. For the same molecule, the Kd at mTFF3 (pH 7.4, 25 °C) was 58 ± 1 µM; at all TFFs, around 50 µM; in experiment [3], 72 µM. Also, the “Kd at pH 2.6 relative to pH 7.4” value at mTFF3 (mTFF3) is recorded as “six-fold higher”. Further, the “binding by ITC” value on dTFF1bio-N14A was “unable to detect any binding”; on dTFF1bio-N14A (listed as GlcNAc-a-1,4-Gal), “could not detect any residual binding”; in the experiment with the other TFF mutants, “unable to detect any binding”.
Regarding “Dimeric TFF1: dimeric wild-type TFF1 construct used in the pMucin agglutination assay ({Avi‑tag(biotin)}-EAQTETCTVAPRERQNCGFPGVTPSQCANKGCCFDDTVRGVPWCFYPNTIDVPPEEECEF; also: homodimer via interchain disulfide, Cys not given here)”, the “lowest concentration inducing dose-dependent increase in light scattering over time” value with pMucin came to 4 µM.
As to “Dimeric TFF3: dimeric wild-type TFF3 construct used in the pMucin agglutination assay ({Avi‑tag(biotin)}-EEYVGLSANQCAVPAKDRVDCGYPHVTPKECNNRGCCFDSRIPGVPWCFKPLQEAECTF; also: homodimer via interchain disulfide, Cys not given here)”, the “lowest concentration inducing dose-dependent increase in light scattering over time” value with pMucin stood at 4 µM.
